Values after ≈ are worked out from the molar mass of the structure shown.
Assays:
Experiment in all cases: Antibacterial activity in vitro, MIC by broth microdilution
[1] = test system: E. faecalis Enfa_29212; assay type: cell-based; conditions: Table 5, Strain ID D: E. faecalis Enfa_29212; unit assumed
Procedure: (§1) Representative compounds of the present invention were assayed in vitro for antibacterial activity against the bacterial isolates listed in Table 1 as follows:
(§2) The bacterial isolates listed in Table 1 were cultivated from −70° C. frozen stocks by two consecutive overnight passages (P1, P2) at 35° C. on 5% blood agar (Remel, Lenexa, Kans.). Chocolate agar (Remel) is used for Haemophilus influenzae. H. influenzae and Streptococcus pneumoniae are incubated in 5-10% CO2.
(§3) To determine the amount of solvent to be used to give the desired final concentration, the formula “weight obtained in mg/final concentration in mg/mL” will be used. It will give the amount of solvent in mL needed to be added to give the desired concentration. For example, if 2.5 mg/mL is the desired concentration and the weight of compound is 13.7 mg, then the amount of solvent to be added is 3.94 mL (13.7 mg/2.5 mg/mL=3.94 mLs). Methanol is used as the solvent to dissolve the test compounds. Further dilution of stock is done in sterile, deioinzed water. Drug stocks are kept frozen at −70° C., protected from light.
(§4) MICs are determined by the broth microdilution method in accordance with the NCCLS guidelines. In brief, organism suspensions are adjusted to a 0.5 McFarland standard to yield a final inoculum between 3×10^5 and 7×10^5 CFU/mL. Drug dilutions and inocula are made in sterile, cation adjusted Mueller-Hinton Broth (CAMHB) (Remel) for all but S. pneumoniae [CAMHB with 2-5% lysed horse blood (Remel)] and H. influenzae [Haemophilus Test Medium (Remel)]. An inoculum volume of 100 μl is added to wells containing 100 μl of broth with 2-fold serial dilutions of drug. All inoculated microdilution trays are incubated in ambient air at 35° C. for 18-24 hours, except for S. pneumoniae, and H. influenzae (both at 5-10% CO2).
(§5) Following appropriate incubation, the MIC is determined and the MIC is defined as the lowest concentration of the drug that prevented visible growth.

[2] = test system: S. aureus Stau_29213; assay type: cell-based; conditions: Table 5, Strain ID A: S. aureus Stau_29213; unit assumed
Procedure: as §1, §2, §3, §4, §5

[3] = test system: S. epidermidis Step_14990; assay type: cell-based; conditions: Table 5, Strain ID B: S. epidermidis Step_14990; unit assumed
Procedure: as §1, §2, §3, §4, §5

[4] = test system: S. epidermidis Step_f50654 Pen S; assay type: cell-based; conditions: Table 5, Strain ID C: S. epidermidis Step_f50654; unit assumed
Procedure: as §1, §2, §3, §4, §5

[5] = test system: S. pyogenes Stpy_8668; assay type: cell-based; conditions: Table 5, Strain ID E: S. pyogenes Stpy_8668
Procedure: as §1, §2, §3, §4, §5

[6] = test system: S. pneumoniae Stpn_280-962 Pen S; assay type: cell-based, Streptococcus pneumoniae; conditions: Table 5, Strain ID H: S. pneumoniae Stpn_280-962
Procedure: as §1, §2, §3, §4, §5

[7] = test system: S. pneumoniae Stpn_297-749 Pen R; assay type: cell-based, Streptococcus pneumoniae; conditions: Table 5, Strain ID G: S. pneumoniae Stpn_297-749
Procedure: as §1, §2, §3, §4, §5

[8] = test system: S. pneumoniae Stpn_49619; assay type: cell-based, Streptococcus pneumoniae; conditions: Table 5, Strain ID F: S. pneumoniae Stpn_49619
Procedure: as §1, §2, §3, §4, §5

[9] = test system: S. pneumoniae Stpn_Erm 6849; assay type: cell-based, Streptococcus pneumoniae; conditions: Table 5, Strain ID I: S. pneumoniae Stpn_Erm 6849
Procedure: as §1, §2, §3, §4, §5

[10] = test system: S. pneumoniae Stpn_Erm S 4297; assay type: cell-based, Streptococcus pneumoniae; conditions: Table 5, Strain ID J: S. pneumoniae Stpn_Erm S 4297
Procedure: as §1, §2, §3, §4, §5

[11] = test system: S. pneumoniae Stpn_Mef 5654; assay type: cell-based, Streptococcus pneumoniae; conditions: Table 5, Strain ID K: S. pneumoniae Stpn_Mef 5654; unit assumed
Procedure: as §1, §2, §3, §4, §5

[12] = test system: S. pneumoniae Stpn_Mef S 3427; assay type: cell-based, Streptococcus pneumoniae; conditions: Table 5, Strain ID L: S. pneumoniae Stpn_Mef S 3427
Procedure: as §1, §2, §3, §4, §5

[13] = test system: H. influenzae Hain_49247; assay type: cell-based, Haemophilus influenzae; conditions: Table 5, Strain ID M: H. influenzae Hain_49247; unit assumed
Procedure: as §1, §2, §3, §4, §5

Row | Compound | MIC [1] | MIC [2] | MIC [3] | MIC [4] | MIC ([5]; unit assumed) | MIC [6] | MIC [7] | MIC [8] | MIC ([9]; unit assumed) | MIC ([10]; unit assumed) | MIC [11] | MIC ([12]; unit assumed) | MIC [13] | MIC [9] | MIC [10] | MIC [5] | MIC [12]
1 | CC[C@H]1OC(=O)[C@H](C)C(=O)[C@H](C)[C@@H](OC2O[C@H](C)C[C@H](N(C)C)[C@H]2O)[C@@](C)(OC)C[C@@H](C)C(=O)[C@H](C)[C@H]2N(CCCCn3cnc4cccnc43)C(=O)O[C@]12CC (stereo partly drawn) [Example 14, (3aS,4R,7R,9R,10R,11S,13R,15R,15aR)-3a,4-diethyl-1-[4-(3H-imidazo[4,5-b]pyridin-3-yl)butyl]-11-methoxy-7,9,11,13,15-pentamethyl-2,6,8,14-tetraoxotetradecahydro-2H-oxacyclotetradecino[4,3-d][1,3]oxazol-10-yl 3,4,6-trideoxy-3-(dimethylamino)-D-xylo-hexopyranoside] | 0.1 µg/mL (≈ 0.125 µM) | 0.4 µg/mL (≈ 0.5 µM) | 0.2 µg/mL (≈ 0.25 µM) | 0.2 µg/mL (≈ 0.25 µM) | – | ≦0.05 | ≦0.05 | ≦0.05 | 0.4 µg/mL (≈ 0.5 µM) | 0.1 µg/mL (≈ 0.125 µM) | 0.4 µg/mL (≈ 0.5 µM) | – | 3.13 µg/mL (≈ 3.91 µM) | – | – | ≦0.05 | ≦0.05
2 | CC[C@H]1OC(=O)[C@H](C)C(=O)[C@H](C)[C@@H](OC2O[C@H](C)C[C@H](N(C)C)[C@H]2O)[C@@](C)(OC)C[C@@H](C)C(=O)[C@H](C)[C@H]2N(CCCCc3ccnc4ccccc34)C(=O)O[C@]12CC (stereo partly drawn) [Example 15, (3aS,4R,7R,9R,10R,11S,13R,15R,15aR)-3a,4-diethyl-11-methoxy-7,9,11,13,15-pentamethyl-2,6,8,14-tetraoxo-1-(4-quinolin-4-ylbutyl)tetradecahydro-2H-oxacyclotetradecino[4,3-d][1,3]oxazol-10-yl 3,4,6-trideoxy-3-(dimethylamino)-D-xylo-hexopyranoside] | 0.1 µg/mL (≈ 0.123 µM) | 0.4 µg/mL (≈ 0.494 µM) | 0.2 µg/mL (≈ 0.247 µM) | 0.4 µg/mL (≈ 0.494 µM) | – | ≦0.05 | ≦0.05 | ≦0.05 | 1.56 µg/mL (≈ 1.93 µM) | 0.1 µg/mL (≈ 0.123 µM) | 0.2 µg/mL (≈ 0.247 µM) | – | 3.13 µg/mL (≈ 3.86 µM) | – | – | ≦0.05 | ≦0.05
3 | CC[C@H]1OC(=O)[C@@](C)(F)C(=O)[C@H](C)[C@@H](OC2O[C@H](C)C[C@H](N(C)C)[C@H]2O)[C@@](C)(OC)C[C@@H](C)C(=O)[C@H](C)[C@H]2N(CCCCc3ccnc4ccccc34)C(=O)O[C@]12CC (stereo partly drawn) [Example 17, (3aS,4R,7S,9R,10R,11S,13R,15R,15aR)-3a,4-diethyl-7-fluoro-11-methoxy-7,9,11,13,15-pentamethyl-2,6,8,14-tetraoxo-1-(4-quinolin-4-ylbutyl)tetradecahydro-2H-oxacyclotetradecino[4,3-d][1,3]oxazol-10-yl 3,4,6-trideoxy-3-(dimethylamino)-D-xylo-hexopyranoside] | 0.2 µg/mL (≈ 0.242 µM) | 0.4 µg/mL (≈ 0.483 µM) | 0.4 µg/mL (≈ 0.483 µM) | 0.4 µg/mL (≈ 0.483 µM) | 0.1 µg/mL (≈ 0.121 µM) | ≦0.05 | ≦0.05 | ≦0.05 | 0.78 µg/mL (≈ 0.942 µM) | 0.2 µg/mL (≈ 0.242 µM) | 0.4 µg/mL (≈ 0.483 µM) | 0.1 µg/mL (≈ 0.121 µM) | 3.13 µg/mL (≈ 3.78 µM) | – | – | – | –
4 | CC[C@H]1OC(=O)[C@@](C)(F)C(=O)[C@H](C)[C@@H](OC2O[C@H](C)C[C@H](N(C)C)[C@H]2O)[C@@](C)(OC)C[C@@H](C)C(=O)[C@H](C)[C@H]2N(CCCCc3ccc4ccccc4n3)C(=O)O[C@]12CC (stereo partly drawn) [Example 19, (3aS,4R,7S,9R,10R,11S,13R,15R,15aR)-3a,4-diethyl-7-fluoro-11-methoxy-7,9,11,13,15-pentamethyl-2,6,8,14-tetraoxo-1-(4-quinolin-2-ylbutyl)tetradecahydro-2H-oxacyclotetradecino[4,3-d][1,3]oxazol-10-yl 3,4,6-trideoxy-3-(dimethylamino)-D-xylo-hexopyranoside] | 0.4 µg/mL (≈ 0.483 µM) | 0.4 µg/mL (≈ 0.483 µM) | 0.4 µg/mL (≈ 0.483 µM) | 0.4 µg/mL (≈ 0.483 µM) | 0.1 µg/mL (≈ 0.121 µM) | ≦0.05 | ≦0.05 | ≦0.05 | 0.78 µg/mL (≈ 0.942 µM) | 0.2 µg/mL (≈ 0.242 µM) | 0.4 µg/mL (≈ 0.483 µM) | 0.1 µg/mL (≈ 0.121 µM) | 6.25 µg/mL (≈ 7.55 µM) | – | – | – | –

Continued, in another order:

Row | MIC [1] | MIC [2] | MIC [3] | MIC [4] | MIC ([5]; unit assumed) | MIC [6] | MIC [7] | MIC [8] | MIC ([9]; unit assumed) | MIC ([10]; unit assumed) | MIC [11] | MIC ([12]; unit assumed) | MIC [13] | MIC [9] | MIC [10] | Compound | MIC [5] | MIC [12]
5 | 0.78 µg/mL (≈ 0.931 µM) | 3.13 µg/mL (≈ 3.73 µM) | 3.13 µg/mL (≈ 3.73 µM) | 3.13 µg/mL (≈ 3.73 µM) | 0.2 µg/mL (≈ 0.239 µM) | ≦0.05 | ≦0.05 | ≦0.05 | 0.78 µg/mL (≈ 0.931 µM) | 0.4 µg/mL (≈ 0.477 µM) | 0.78 µg/mL (≈ 0.931 µM) | 0.2 µg/mL (≈ 0.239 µM) | 25 µg/mL (≈ 29.8 µM) | – | – | C/C=C/[C@]12OC(=O)N(CCCCn3cnc(-c4cccnc4)c3)[C@@H]1[C@@H](C)C(=O)[C@H](C)C[C@](C)(OC)[C@H](O[C@@H]1O[C@H](C)C[C@H](N(C)C)[C@H]1O)[C@@H](C)C(=O)[C@@H](C)C(=O)O[C@@H]2CC [65(2), (3aS,4R,7R,9R,10R,11S,13R,15R,15aR)-4-ethyl-11-methoxy-7,9,11,13,15-pentamethyl-2,6,8,14-tetraoxo-3a-[(1E)-prop-1-enyl]-1-[4-(4-pyridin-3-yl-1H-imidazol-1-yl)butyl]tetradecahydro-2H-oxacyclotetradecino[4,3-d][1,3]oxazol-10-yl 3,4,6-trideoxy-3-(dimethylamino)-D-xylo-hexopyranoside] | – | –
6 | 0.1 µg/mL (≈ 0.123 µM) | 0.78 µg/mL (≈ 0.963 µM) | 0.4 µg/mL (≈ 0.494 µM) | 0.78 µg/mL (≈ 0.963 µM) | 0.1 µg/mL (≈ 0.123 µM) | ≦0.05 | ≦0.05 | ≦0.05 | 3.13 µg/mL (≈ 3.86 µM) | 0.2 µg/mL (≈ 0.247 µM) | 0.4 µg/mL (≈ 0.494 µM) | – | 3.13 µg/mL (≈ 3.86 µM) | – | – | CC[C@H]1OC(=O)[C@H](C)C(=O)[C@H](C)[C@@H](OC2O[C@H](C)C[C@H](N(C)C)[C@H]2O)[C@@](C)(OC)C[C@@H](C)C(=O)[C@H](C)[C@H]2N(CCCCc3ccc4ccccc4n3)C(=O)O[C@]12CC (stereo partly drawn) [Example 18, (3aS,4R,7R,9R,10R,11S,13R,15R,15aR)-3a,4-diethyl-11-methoxy-7,9,11,13,15-pentamethyl-2,6,8,14-tetraoxo-1-(4-quinolin-2-ylbutyl)tetradecahydro-2H-oxacyclotetradecino[4,3-d][1,3]oxazol-10-yl 3,4,6-trideoxy-3-(dimethylamino)-D-xylo-hexopyranoside] | – | ≦0.05
7 | 0.1 µg/mL (≈ 0.119 µM) | 0.2 µg/mL (≈ 0.238 µM) | 0.1 µg/mL (≈ 0.119 µM) | 0.2 µg/mL (≈ 0.238 µM) | – | ≦0.05 | ≦0.05 | ≦0.05 | – | – | 0.4 µg/mL (≈ 0.476 µM) | – | 6.25 µg/mL (≈ 7.44 µM) | ≦0.5 | ≦0.05 | CC[C@H]1OC(=O)[C@H](C)C(=O)[C@H](C)[C@@H](OC2O[C@H](C)C[C@H](N(C)C)[C@H]2O)[C@@](C)(OC)C[C@@H](C)C(=O)[C@H](C)[C@H]2N(CCCCn3cc(-c4cccnc4)nc3C)C(=O)O[C@]12CC (stereo partly drawn) [Example 20, (3aS,4R,7R,9R,10R,11S,13R,15R,15aR)-3a,4-diethyl-11-methoxy-7,9,11,13,15-pentamethyl-1-[4-(2-methyl-4-pyridin-3-yl-1H-imidazol-1-yl)butyl]-2,6,8,14-tetraoxotetradecahydro-2H-oxacyclotetradecino[4,3-d][1,3]oxazol-10-yl 3,4,6-trideoxy-3-(dimethylamino)-D-xylo-hexopyranoside] | ≦0.05 | ≦0.05

— US6756359B2, “C12 modified erythromycin macrolides and ketolides having antibacterial activity” (Chiron Corporation, priority 2001, dated 2004)
